The source of these data is patent US20260200928A1, “THERAPEUTIC COMPOUNDS” (Sanofi, priority 2022, published 2026).

In the test the target is T1, human IL-17A (Homo sapiens, UniProt Q16552).
T1 construct: purchased R&D Systems 7955-IL/CF
T1 sequence (Q16552 24-155): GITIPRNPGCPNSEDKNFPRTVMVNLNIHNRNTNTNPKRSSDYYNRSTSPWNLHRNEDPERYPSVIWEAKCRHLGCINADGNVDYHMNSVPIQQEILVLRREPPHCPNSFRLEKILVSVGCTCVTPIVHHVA
The test is described as follows: IL-17A AlphaLISA competition assay (block of IL-17A binding to its receptor IL-17RA). The conditions noted are these: mean IC50 (n≥2), block of IL-17A binding to IL-17RA. A digest of the protocol:
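Bead-based AlphaLISA competition in PBS with 0.05% Tween-20 and 0.1% BSA: compound first meets human IL-17A (7.5 nM stock) for 30 min, then IL-17RA/Fc (5 nM stock) for 90 min, all at room temperature, before acceptor/donor bead capture. IC50 fitted 4-parameter, DMSO and 4 μM reference inhibitor as controls; at least duplicate.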
(Alpha assays give light when donor and acceptor beads are brought close together.)
In the case of `COCC(c1ccnc(NC(=O)[C@@H](NC(=O)c2cnc(C)nc2C(F)(F)F)[C@H]2CC[C@H](C)CC2)c1)N1C[C@@H](C(F)(F)F)NC1=O` (mixture of isomers) [Example 90, N-((1S)-2-((4-(2-methoxy-1-((RS)-2-oxo-4-(trifluoromethyl)imidazolidin-1-yl)ethyl)pyridin-2-yl)amino)-1-((1r,4S)-4-methylcyclohexyl)-2-oxoethyl)-2-methyl-4-(trifluoromethyl)pyrimidine-5-carboxamide], the half-maximal inhibitory concentration (IC50) (as a rule, the concentration at which inhibition is half-maximal) amounted to 4520 nM.

In turn, `CCC(c1ccnc(NC(=O)C(NC(=O)c2ccnn2CC)C2CCC(C)CC2)c1)N1CC(C(F)(F)F)NC1=O` [Example 258, 1-ethyl-N-((S)-1-((1r,4S)-4-methylcyclohexyl)-2-oxo-2-((4-((R)-1-((S)-2-oxo-4-(trifluoromethyl)imidazolidin-1-yl)propyl)pyridin-2-yl)amino)ethyl)-1H-pyrazole-5-carboxamide] gave an IC50 of 9 nM.

With “1-isopropyl-N-((1S)-2-((4-((S)-2-methoxy-1-((S)-2-oxo-4-(trifluoromethyl)imidazolidin-1-yl)ethyl)pyridin-2-yl)amino)-2-oxo-1-(4-(trifluoromethyl)cyclohexyl)ethyl)-1H-pyrazole-5-carboxamide [Example 303]”, the IC50 amounted to 46 nM.

`Cc1cnn(C)c1Cc1ccnc(NC(=O)C(NC(=O)c2ccnn2C)C2CCC(F)(F)CC2)c1` (centres unmarked) [Example 53] displayed an IC50 of 3880 nM.

As to `O=C(N[C@H](C(=O)Nc1cc(CN2C[C@@H](C(F)(F)F)NC2=O)ccn1)C1CCC(F)(F)CC1)OCc1ccccc1` (stereo in doubt) [Example 10, Benzyl ((S)-1-(4,4-difluorocyclohexyl)-2-oxo-2-((4-(((S)-2-oxo-4-(trifluoromethyl)imidazolidin-1-yl)methyl)pyridin-2-yl)amino)ethyl)carbamate], the IC50 came to 273 nM.

The compound `CC(C)(C)OC(=O)N[C@H](C(=O)Nc1cc(CN2C[C@@H](C(F)(F)F)NC2=O)ccn1)C(C1CC1)C1CC1` [Example 104, Tert-butyl ((S)-1,1-dicyclopropyl-3-oxo-3-((4-(((S)-2-oxo-4-(trifluoro-methyl)imidazolidin-1-yl)methyl)pyridin-2-yl)amino)propan-2-yl)carbamate] had an IC50 of 938 nM.

`O=C(CCC(F)(F)F)NC(c1ccnc(NC(=O)[C@@H](NC(=O)c2cocn2)C2CCC(F)(F)CC2)c1)C1CC1` (stereo partly drawn) [Example 109, N-((1S)-2-((4-(cyclopropyl(4,4,4-trifluorobutanamido)methyl)pyridin-2-yl)amino)-1-(4,4-difluorocyclohexyl)-2-oxoethyl)oxazole-4-carboxamide] displayed an IC50 of 7800 nM.

Compound `COCC(c1ccnc(NC(=O)[C@@H](NC(=O)c2ccnn2C)C2CCC(C)CC2)c1)N1C[C@@H](C(F)(F)F)NC1=O` (stereo partly drawn) [Example 76, N-((1S)-2-((4-(2-methoxy-1-((S)-2-oxo-4-(trifluoro-methyl)imidazolidin-1-yl)ethyl)pyridin-2-yl)amino)-1-((1r,4S)-4-methylcyclohexyl)-2-oxoethyl)-1-methyl-1H-pyrazole-5-carboxamide] returned an IC50 of 93 nM.

The compound `COCC(c1ccnc(NC(=O)C(NC(=O)C(F)(F)c2cc(F)cc(F)c2)C2CCC(C)CC2)c1)N1CC(C(F)(F)F)NC1=O` (single isomer, unassigned) [Example 250] returned an IC50 of 38 nM.

As for `COC[C@H](c1ccnc(NC(=O)[C@@H](NC(=O)c2nonc2C2CC2)C(C2CC2)C2CC2)c1)N1C[C@@H](C(F)(F)F)NC1=O` [Example 227, 4-cyclopropyl-N-((S)-1,1-dicyclopropyl-3-((4-((S)-2-methoxy-1-((S)-2-oxo-4-(trifluoromethyl)imidazolidin-1-yl)ethyl)pyridin-2-yl)amino)-3-oxopropan-2-yl)-1,2,5-oxadiazole-3-carboxamide], the IC50 is 20 nM.

The compound `CC(C)n1nccc1C(=O)NC(C(=O)Nc1cc(Cc2cccc(=O)n2C)ccn1)C1CCC(F)(F)CC1` (centres unmarked) [Example 35, N-(1-(4,4-difluorocyclohexyl)-2-((4-((1-methyl-6-oxo-1,6-dihydropyridin-2-yl)methyl)pyridin-2-yl)amino)-2-oxoethyl)-1-isopropyl-1H-pyrazole-5-carboxamide] came in with an IC50 of 23500 nM.

The compound `COCC(NC(=O)CCC(F)(F)F)c1ccnc(NC(=O)[C@@H](NC(=O)c2ccnn2CC2CC2)C2CCC(F)(F)CC2)c1` (single isomer, unassigned) [Example 142] registered an IC50 of 203 nM.

`COCC(c1ccnc(NC(=O)[C@@H](NC(=O)c2nonc2C)[C@H]2CC[C@H](C)CC2)c1)N1C[C@@H](C(F)(F)F)NC1=O` (single isomer, unassigned) [Example 86] showed an IC50 of 6 nM.

Consider `Cn1nccc1C(=O)NC(C(=O)Nc1cc(CN2CC(C(F)(F)F)NC2=O)ccn1)C1CCC(F)CC1` [Example 294, N-((S)-1-((1r,4S)-4-fluorocyclohexyl)-2-oxo-2-((4-(((S)-2-oxo-4-(trifluoromethyl)imidazolidin-1-yl)methyl)pyridin-2-yl)amino)ethyl)-1-methyl-1H-pyrazole-5-carboxamide], for which the IC50 came to 374 nM.

The compound `COC[C@H](c1ccnc(NC(=O)C(NC(=O)c2nonc2OCC(F)(F)F)C2CCC(F)CC2)c1)N1C[C@@H](C(F)(F)F)NC1=O` (single isomer, unassigned) [Example 282] came in with an IC50 of 103 nM.

`CCc1nonc1C(=O)N[C@@H](COC(C)(C)C(F)(F)F)C(=O)Nc1cc([C@@H](COC)N2C[C@@H](C(F)(F)F)NC2=O)ccn1` [Example 266, 4-ethyl-N-((S)-1-((4-((S)-2-methoxy-1-((S)-2-oxo-4-(trifluoromethyl)imidazolidin-1-yl)ethyl)pyridin-2-yl)amino)-1-oxo-3-((1,1,1-trifluoro-2-methylpropan-2-yl)oxy)propan-2-yl)-1,2,5-oxadiazole-3-carboxamide] displayed an IC50 of 15 nM.

`Cn1nccc1C(=O)N[C@H](C(=O)Nc1cc(C(NC(=O)CCC(F)(F)F)C2CC2)ccn1)[C@H]1CC[C@H](C)CC1` (stereo partly drawn) [Example 236, N-((1S)-2-((4-(cyclopropyl(4,4,4-trifluorobutanamido)methyl)pyridin-2-yl)amino)-1-((1r,4S)-4-methylcyclohexyl)-2-oxoethyl)-1-methyl-1H-pyrazole-5-carboxamide] displayed an IC50 of 26 nM.

`CCn1nccc1C(=O)N[C@H](C(=O)Nc1cc(C(COC)NC(=O)CCC(F)(F)F)ccn1)C1CCC(F)(F)CC1` (single isomer, unassigned) [Example 138] returned an IC50 of 164 nM.

Turning to `Cc1nonc1C(=O)N[C@H](C(=O)Nc1cc(C(C2CC2)N2C[C@@H](C(F)(F)F)NC2=O)ccn1)C1CCC(F)(F)CC1` (single isomer, unassigned) [Example 164, N-((1S)-2-((4-((R or S)-cyclopropyl((S)-2-oxo-4-(trifluoromethyl)imidazolidin-1-yl)methyl)pyridin-2-yl)amino)-1-(4,4-difluorocyclohexyl)-2-oxoethyl)-4-methyl-1,2,5-oxadiazole-3-carboxamide], the IC50 amounted to 35 nM.

`C[C@H]1CC[C@H]([C@H](NC(=O)NCc2ccccc2)C(=O)Nc2cc(CN3C[C@@H](C(F)(F)F)NC3=O)ccn2)CC1` [Example 97, (S)-2-(3-Benzylureido)-2-((1r,4S)-4-methylcyclohexyl)-N-(4-(((S)-2-oxo-4-(trifluoromethyl)imidazolidin-1-yl)methyl)pyridin-2-yl)acetamide]: the IC50 was 2080 nM.
